Experimental data as given in patent US9370504B2, “Pharmaceutical composition containing 1,2-dithiolthione derivative for preventing or treating disease caused by overexpression of LXR-α” (SNU R&DB FOUNDATION, priority 2008, dated 2016).
Like-named read-outs stand apart in the source and are kept apart here.

What was measured:
SREBP-1 [1] = settings: H4IIE cells, FIG. 5A
SREBP-1 [2] = settings: rat primary cultured liver cells, FIG. 5A
SREBP-1 [3] = settings: HepG2 cells, FIG. 5A
LXRα/RXRα complex = LXRα/RXRα complex (Homo sapiens, UniProt Q13133); settings: LXRα and RXRα overexpressed; nuclear fraction; FIG. 3B
Description: Whether a binding capability of LXRE is changed by oltipraz treatment was identified by gel-shift assay. LXRE double-stranded oligonucleotide of a SREBP-1c gene was labeled with a radio active isotope at 5′-terminal by using [γ-^32P]ATP and T4 polynucleotide kinase, and then the labeled probe (1 ml, >10^6 cpm) was reacted with nuclear fraction proteins in a binding buffer solution. The reaction solution was subjected to electrophoresis in 4% polyacrylamide gel and then assayed by autoradiography. […] DNA binding specificity was identified by cold probe titration and supershift assay. For the cold probe titration, 20 times greater (molar base) un-labeled oligonucleotides were reacted in advance.

FAS = settings: high lipid diet 10 weeks; oltipraz 10-30 mg/kg, 3 times/week, last four weeks; p<0.01; FIG. 9
Description: (§1) Male C57BL/6 mice (average weight of 25 to 30 g) as test animals were purchased from Charles River Orient (Seoul, Korea). For at least one week before being tested, the mice were acclimatized to the surrounding environment in the animal test research center of the College of Pharmacy, Seoul National University, that is, humidity of 55±5%, temperature of 22±2° C., and controlled ventilation. The mice were repeatedly and alternately exposed to light and then placed in the dark for a time interval of 12 hours (from 7 A.M. to 7 P.M). […] The weight and state of the mice were measured once a week. Two groups of mice were respectively raised with a high lipid diet (Dyets Inc., Bethlehem) and a normal diet for 10 weeks. For the last four weeks in each case, oltipraz (10 or 30 mg/kg, 3 times/week) was administered to the mice (FIG. 1). Each group consisted of a total of 10 mice.
(§2) Total RNA (2 μg) and d(T)16 primer which were extracted from the liver of mice, and an AMV reverse transcriptase were used to obtain cDNA. The relative amounts of genes were quantified by realtime RT-PCR using a CyBr green dye. The realtime RT-PCR was Light-cycler^2.0 produced by Roche (Mannheim, Germany).

LXRα = settings: high lipid diet 10 weeks; oltipraz 10-30 mg/kg, 3 times/week, last four weeks; p<0.01; FIG. 2
Description: as §1, §2

SREBP-1 [4] = settings: high lipid diet 10 weeks; oltipraz 10-30 mg/kg, 3 times/week, last four weeks; p<0.01; FIG. 4
Description: as §1, §2

ACC = settings: high lipid diet 10 weeks; oltipraz 10-30 mg/kg, 3 times/week, last four weeks; p<0.01; FIG. 9
Description: as §1, §2

SREBP-1 [5] = settings: HepG2 cells treated with T0901317; nuclear fraction; FIG. 5B
[6] = Description: as §1
[7] = within 12 hours after treatment
[8] = whole cell extract, co-treated with T0901317

Chain of LXRα/RXRα complex (Q13133 whole entry, one chain of several): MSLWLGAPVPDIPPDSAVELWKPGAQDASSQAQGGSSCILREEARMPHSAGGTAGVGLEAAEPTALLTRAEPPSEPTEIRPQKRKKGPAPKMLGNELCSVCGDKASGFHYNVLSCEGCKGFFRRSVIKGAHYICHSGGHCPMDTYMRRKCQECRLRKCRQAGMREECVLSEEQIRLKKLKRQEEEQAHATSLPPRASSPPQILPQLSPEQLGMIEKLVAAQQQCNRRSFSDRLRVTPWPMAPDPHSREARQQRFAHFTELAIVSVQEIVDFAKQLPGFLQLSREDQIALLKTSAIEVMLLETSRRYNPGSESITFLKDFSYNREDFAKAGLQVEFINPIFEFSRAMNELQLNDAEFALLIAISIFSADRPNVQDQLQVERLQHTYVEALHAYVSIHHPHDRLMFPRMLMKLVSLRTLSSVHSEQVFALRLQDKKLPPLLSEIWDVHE

binding capability of LXRα with respect to DNA (LXRE) (LXRα/RXRα complex) | SMILES | expression of SREBP-1 protein after LXRα activator alone (SREBP-1 [1]; [7]) | expression of SREBP-1 protein after LXRα activator alone (SREBP-1 [2]; [7]) | expression of SREBP-1 protein after LXRα activator alone (SREBP-1 [3]; [7]) | T0901317-increased expression of SREBP-1 protein (SREBP-1 [1]; whole cell extract, co-treated with T0901317, FIGS. 6-8) | increase in FAS expression (mRNA, relative to normal diet group) (FAS) | increase in LXRα expression (mRNA, relative to normal diet group) (LXRα) | increase in SREBP-1 expression (mRNA, relative to normal diet group) (SREBP-1 [4]) | increase in ACC expression (mRNA, relative to normal diet group) (ACC) | T0901317-increased expression of SREBP-1 protein (SREBP-1 [2]; [8]) | T0901317-increased expression of SREBP-1 protein (SREBP-1 [3]; [8]) | increased nuclear localization of SREBP-1 (SREBP-1 [5]) | red part dyed with Oil-Red-O in liver tissue ([6]; HFD+Oltipraz versus HFD+vehicle, FIG. 11) | amount of triglyceride in liver tissues ([6]; high lipid diet 10 weeks, oltipraz administered, p<0.01, FIG. 10)
 | O=S(=O)(c1ccccc1)N(CC(F)(F)F)c1ccc(C(O)(C(F)(F)F)C(F)(F)F)cc1 [compound 10901317] | remarkably increased | remarkably increased | remarkably increased |  |  |  |  |  |  |  |  |  | 
substantially decreased | Cc1c(-c2cnccn2)ssc1=S [oltipraz, 4-methyl-5-(2-pyrazinyl)-1,2-dithiol-3-thione] |  |  |  | concentration-dependently reduced | inhibited | inhibited | inhibited | inhibited | concentration-dependently reduced | concentration-dependently reduced | concentration-dependently reduced | remarkably reduced | significantly reduced
